Laboratory results taken from patent US10925856B2, “Methods and compositions involving bucindolol for the treatment of atrial fibrillation” (priority 2018, dated 2021).
Marks after values point to notes of the source that are not given here.

What was measured:
[1] = Systolic blood pressure and heart rate by scheduled visit; type: in vivo, human
From the text: Block is defined as the first of any of the following: 1) 3rd degree heart block (complete heart block); 2) any 2nd degree heart block with the presence of symptoms attributable to, and temporally correlated with the occurrence of heart block which include any of the following: Near-fainting or fainting (syncope)/Dizziness; Weakness or Fatigue; Shortness of breath; Chest pain; or 3) 2nd or 3rd degree heart block requiring implantation of a permanent pacemaker (with or without defibrillator). • Data source: • CVEVENT and AE eCRF forms. • Overall incidence and severity of treatment-emergent AEs/SAEs over time during the Total Study Period. Also events associated with device implantation. […] The AEs of special interest will be tabulated according to the following characteristics. • Development of treatment-emergent neoplastic conditions. • Progression or worsening of pre-study neoplastic conditions. • Progression or worsening of treatment-emergent neoplastic conditions. • Data source: • AE, NEOPLHX and NEOPLAS eCRF forms. • Clinical Chemistry and Hematology. • Visit collection: screen, start of follow-up Week 0 (protocol versions 1 and 2), Week 4 (protocol versions 3 and 4), Week 12 (protocol versions 3 and 4), Week 24, every 24 weeks during extension, end of treatment and end of study. […] Randomization Visit measurement prior to first dose will serve as the baseline. Will be analyzed at Week 0, 4, 12 and 24 visits as well as end of treatment and end of study. • Change from baseline to each analysis visit will be calculated and analyzed with descriptive statistics. • The numbers and percentages of patients with QTc increase from baseline exceeding 60 ms at any time point during the study. • Data source: • ECG eCRF form. • Vital signs and weight (data source: VITALS eCRF form). • Measured at every in-clinic visit. Randomization Visit measurement prior to first dose will serve as the baseline. Will be analyzed at Week 0, 4, 12 and 24 visits as well as end of treatment and end of study. • Change from baseline to each analysis visit will be calculated and analyzed with descriptive statistics. • Data source: • VITALS eCRF form. • Proportion of patients attaining target study drug dose during the Drug Titration Period. Will be calculated for all patients, those receiving β-blocker therapy prior to randomization and those not previously receiving β-blocker therapy. • Data Sources: • VISREC and DRUGLOG eCRF forms.

plasma norepinephrine = assay: Plasma norepinephrine (HPLC with electrochemical detection); settings: for Norepinephrine, ΔWeek 12 Mean ± SEM / Norepinephrine, ΔWeek 12 Median / Norepinephrine, ΔWeek 24 Mean ± SEM / Norepinephrine, ΔWeek 24 Median: change from baseline
[2] = Europe excluding Hungary (n = 48)

CC(C)(Cc1c[nH]c2ccccc12)NCC(O)COc1ccccc1C#N (centres unmarked) [bucindolol, 2-(3-(1-(1H-indol-3-yl)-2-methylpropan-2-ylamino)-2-hydroxypropoxy)benzonitrile]
Systolic Blood Pressure, Baseline Mean ± SEM ([1]; Baseline): 124.7 ± 1.3 mmHg
Heart Rate, Baseline Mean ± SEM ([1]; Baseline, by ECG): 76.5 ± 1.5 bpm
Systolic Blood Pressure, Mean ± SEM ([1]; Week 4 Change from Baseline): −0.3 ± 1.5 mmHg
Heart Rate, Mean ± SEM ([1]; Week 4 Change from Baseline, by ECG): 0.1 ± 1.6 bpm
Systolic Blood Pressure, Mean ± SEM ([1]; Week 12 Change from Baseline): −0.5 ± 1.8 mmHg
Heart Rate, Mean ± SEM ([1]; Week 12 Change from Baseline, by ECG): −1.5 ± 1.8 bpm
Systolic Blood Pressure, Mean ± SEM ([1]; Week 24 Change from Baseline): −1.1 ± 1.5 mmHg
Heart Rate, Mean ± SEM ([1]; Week 24 Change from Baseline, by ECG): 0.1 ± 2.3 bpm
Plasma norepinephrine, Week 4 Mean (plasma norepinephrine; Canada): 583 pg/mL
Plasma norepinephrine, Week 4 Median (plasma norepinephrine; Canada): 551 pg/mL
Plasma norepinephrine, change from baseline to Week 4, Mean ±SEM (plasma norepinephrine; Canada): -59 pg/mL
Plasma norepinephrine, change from baseline to Week 4, Median (plasma norepinephrine; Canada): -1 pg/mL
Norepinephrine, Baseline Mean ± SD (plasma norepinephrine; Canada (n = 59)): 642 ± 341 pg/mL
Norepinephrine, Baseline Median (plasma norepinephrine; Canada (n = 59)): 522 pg/mL
Norepinephrine, Week 12 Mean ± SD (plasma norepinephrine; Canada (n = 59)): 528 ± 252 pg/mL
Norepinephrine, Week 12 Median (plasma norepinephrine; Canada (n = 59)): 484 pg/mL
Norepinephrine, Week 24 Mean ± SD (plasma norepinephrine; Canada (n = 59)): 623 ± 276 pg/mL
Norepinephrine, Week 24 Median (plasma norepinephrine; Canada (n = 59)): 564 pg/mL
Change in NE at Week 4, median (Q1, Q3) (plasma norepinephrine; Entire Cohort): −101 (−241, 43)* pg/ml
Plasma norepinephrine, Week 4 Mean (plasma norepinephrine; Entire Cohort): 563 pg/mL
Plasma norepinephrine, Week 4 Median (plasma norepinephrine; Entire Cohort): 500 pg/mL
Plasma norepinephrine, change from baseline to Week 4, Mean ±SEM (plasma norepinephrine; Entire Cohort): -124 ± 26 pg/mL
Plasma norepinephrine, change from baseline to Week 4, Median (plasma norepinephrine; Entire Cohort): -101 pg/mL
Norepinephrine, Baseline Mean ± SD (plasma norepinephrine; Entire Cohort (n = 267)): 682 ± 349 pg/mL
Norepinephrine, Baseline Median (plasma norepinephrine; Entire Cohort (n = 267)): 607 pg/mL
Norepinephrine, Week 12 Mean ± SD (plasma norepinephrine; Entire Cohort (n = 267)): 570 ± 275 pg/mL
Norepinephrine, Week 12 Median (plasma norepinephrine; Entire Cohort (n = 267)): 520 pg/mL
Norepinephrine, Week 24 Mean ± SD (plasma norepinephrine; Entire Cohort (n = 267)): 631 ± 329 pg/mL
Norepinephrine, Week 24 Median (plasma norepinephrine; Entire Cohort (n = 267)): 545 pg/mL
Plasma norepinephrine, change from baseline to Week 4, Mean ±SEM (plasma norepinephrine; Entire Cohort, listed as Buc): -124 pg/mL
Plasma norepinephrine, Week 4 Mean (plasma norepinephrine; Europe excluding Hungary): 604 pg/mL
Plasma norepinephrine, Week 4 Median (plasma norepinephrine; Europe excluding Hungary): 540 pg/mL
Plasma norepinephrine, change from baseline to Week 4, Mean ±SEM (plasma norepinephrine; Europe excluding Hungary): -126 pg/mL
Plasma norepinephrine, change from baseline to Week 4, Median (plasma norepinephrine; Europe excluding Hungary): -129 pg/mL
Norepinephrine, Baseline Mean ± SD (plasma norepinephrine; [2]): 753 ± 375 pg/mL
Norepinephrine, Baseline Median (plasma norepinephrine; [2]): 691 pg/mL
Norepinephrine, Week 12 Mean ± SD (plasma norepinephrine; [2]): 683 ± 318 pg/mL
Norepinephrine, Week 12 Median (plasma norepinephrine; [2]): 611 pg/mL
Norepinephrine, Week 24 Mean ± SD (plasma norepinephrine; [2]): 798 ± 459 pg/mL
Norepinephrine, Week 24 Median (plasma norepinephrine; [2]): 729 pg/mL
Plasma norepinephrine, Week 4 Mean (plasma norepinephrine; Hungary): 576 pg/mL
Plasma norepinephrine, Week 4 Median (plasma norepinephrine; Hungary): 525 pg/mL
Plasma norepinephrine, change from baseline to Week 4, Mean ±SEM (plasma norepinephrine; Hungary): -208 pg/mL
Plasma norepinephrine, change from baseline to Week 4, Median (plasma norepinephrine; Hungary): −213* pg/ml
Norepinephrine, Baseline Mean ± SD (plasma norepinephrine; Hungary (n = 33)): 767 ± 270 pg/mL
Norepinephrine, Baseline Median (plasma norepinephrine; Hungary (n = 33)): 792 pg/mL
Norepinephrine, Week 12 Mean ± SD (plasma norepinephrine; Hungary (n = 33)): 638 ± 254 pg/mL
Norepinephrine, Week 12 Median (plasma norepinephrine; Hungary (n = 33)): 690 pg/mL
Norepinephrine, Week 24 Mean ± SD (plasma norepinephrine; Hungary (n = 33)): 711 ± 267 pg/mL
Norepinephrine, Week 24 Median (plasma norepinephrine; Hungary (n = 33)): 736 pg/mL
Plasma norepinephrine, Week 4 Mean (plasma norepinephrine; U.S.): 529 pg/mL
Plasma norepinephrine, Week 4 Median (plasma norepinephrine; U.S.): 473 pg/mL
Plasma norepinephrine, change from baseline to Week 4, Mean ±SEM (plasma norepinephrine; U.S.): -136 pg/mL
Plasma norepinephrine, change from baseline to Week 4, Median (plasma norepinephrine; U.S.): -101 pg/mL
Norepinephrine, Baseline Mean ± SD (plasma norepinephrine; U.S. (n = 127)): 650 ± 362 pg/mL
Norepinephrine, Baseline Median (plasma norepinephrine; U.S. (n = 127)): 598 pg/mL
Norepinephrine, Week 12 Mean ± SD (plasma norepinephrine; U.S. (n = 127)): 529 ± 267 pg/mL
Norepinephrine, Week 12 Median (plasma norepinephrine; U.S. (n = 127)): 466 pg/mL
Norepinephrine, Week 24 Mean ± SD (plasma norepinephrine; U.S. (n = 127)): 585 ± 336 pg/mL
Norepinephrine, Week 24 Median (plasma norepinephrine; U.S. (n = 127)): 498 pg/mL
Degree of reduction in NE by median values (plasma norepinephrine; Week 4, Hungary): 213 pg/mL
Degree of reduction in NE by median values (plasma norepinephrine; Week 4, U.S.): 101 pg/mL
Degree of reduction in NE by median values (plasma norepinephrine; Week 4, rest of Europe): 121 pg/mL
Reduction in NE (plasma norepinephrine; Week 12, Canada): 100 pg/mL
Reduction in NE (plasma norepinephrine; Week 24, Canada): 21 pg/mL
Reduction in NE (plasma norepinephrine; Week 24, Hungary): 193 pg/mL
Reduction in NE (plasma norepinephrine; Week 24, U.S.): 46 pg/mL
Norepinephrine, ΔWeek 12 Mean ± SEM (plasma norepinephrine; Canada (n = 59)): -133 ± 48 pg/mL
Norepinephrine, ΔWeek 12 Median (plasma norepinephrine; Canada (n = 59)): -100 pg/mL
Norepinephrine, ΔWeek 24 Mean ± SEM (plasma norepinephrine; Canada (n = 59)): -38 ± 54 pg/mL
Norepinephrine, ΔWeek 24 Median (plasma norepinephrine; Canada (n = 59)): -21 pg/mL
Norepinephrine, ΔWeek 12 Mean ± SEM (plasma norepinephrine; Entire Cohort (n = 267)): -118 ± 27 pg/mL
Norepinephrine, ΔWeek 12 Median (plasma norepinephrine; Entire Cohort (n = 267)): -100 pg/mL
Norepinephrine, ΔWeek 24 Mean ± SEM (plasma norepinephrine; Entire Cohort (n = 267)): -64 ± 31 pg/mL
Norepinephrine, ΔWeek 24 Median (plasma norepinephrine; Entire Cohort (n = 267)): -47 pg/mL
Norepinephrine, ΔWeek 12 Mean ± SEM (plasma norepinephrine; [2]): -34 ± 51 pg/mL
Norepinephrine, ΔWeek 12 Median (plasma norepinephrine; [2]): -55 pg/mL
Norepinephrine, ΔWeek 24 Mean ± SEM (plasma norepinephrine; [2]): 56 ± 152 pg/mL
Norepinephrine, ΔWeek 24 Median (plasma norepinephrine; [2]): -82 pg/mL
Norepinephrine, ΔWeek 12 Mean ± SEM (plasma norepinephrine; Hungary (n = 33)): -172 ± 63 pg/mL
Norepinephrine, ΔWeek 12 Median (plasma norepinephrine; Hungary (n = 33)): -171 pg/mL
Norepinephrine, ΔWeek 24 Mean ± SEM (plasma norepinephrine; Hungary (n = 33)): -132 ± 296 pg/mL
Norepinephrine, ΔWeek 24 Median (plasma norepinephrine; Hungary (n = 33)): -193 pg/mL
Norepinephrine, ΔWeek 12 Mean ± SEM (plasma norepinephrine; U.S. (n = 127)): -128 ± 49 pg/mL
Norepinephrine, ΔWeek 12 Median (plasma norepinephrine; U.S. (n = 127)): -86 pg/mL
Norepinephrine, ΔWeek 24 Mean ± SEM (plasma norepinephrine; U.S. (n = 127)): -86 ± 40 pg/mL
Norepinephrine, ΔWeek 24 Median (plasma norepinephrine; U.S. (n = 127)): -46 pg/mL
Degree of reduction in NE by median values (plasma norepinephrine; week 4, entire cohort): 101 pg/mL
Reduction in NE (plasma norepinephrine; week 24, entire cohort): 47 pg/mL
